Tests used:
Test in all cases: KINOMEscan competition binding
Conditions in all cases: compound 1.0 µM
[1] = target: ACVR1B (human) (UniProt P36896)
[2] = target: AKT3 (human) (UniProt Q9Y243)
[3] = target: BMP2K (human) (UniProt Q9NSY1)
[4] = target: BMPR1A (human) (UniProt P36894)
[5] = target: CDK3 (human) (UniProt Q00526)
[6] = target: CDK4 CCND3 (human) (UniProt P11802+P30281)
[7] = target: CLK2 (human) (UniProt P49760)
[8] = target: CSNK1G3 (human) (UniProt Q9Y6M4)
[9] = target: DDR1 (human) (UniProt Q08345)
[10] = target: DDR2 (human) (UniProt Q16832)
[11] = target: DYRK1A (human) (UniProt Q13627)
[12] = system: EGFR (human), P00533 [752-759 del]
[13] = target: EIF2AK1 (human) (UniProt Q9BQI3)
[14] = system: FLT3 (human), P36888 [N841I]
[15] = target: HIPK1 (human) (UniProt Q86Z02)
[16] = target: INSRR (human) (UniProt P14616)
[17] = target: ITK (human) (UniProt Q08881)
[18] = target: KDR (human) (UniProt P35968)
[19] = system: KIT (human), P10721 [L576P]
[20] = target: LCK (human) (UniProt P06239)
[21] = target: LTK (human) (UniProt P29376)
[22] = target: MAP2K6 (human) (UniProt P52564)
[23] = target: MAPK3 (human) (UniProt P27361)
[24] = target: MARK2 (human) (UniProt Q7KZI7)
[25] = target: MLTK (human) (UniProt Q9NYL2)
[26] = target: MYLK3 (human) (UniProt Q32MK0)
[27] = target: NTRK1 (human) (UniProt P04629)
[28] = target: NTRK3 (human) (UniProt Q16288)
[29] = target: PDPK1 (human) (UniProt O15530)
[30] = target: PIK3C2B (human) (UniProt O00750)
[31] = target: PRKD1 (human) (UniProt Q15139)
[32] = target: PRKD2 (human) (UniProt Q9BZL6)
[33] = target: RIOK3 (human) (UniProt O14730)
[34] = target: ROS1 (human) (UniProt P08922)
[35] = target: TAOK3 (human) (UniProt Q9H2K8)
[36] = target: TNK2 (human) (UniProt Q07912)
[37] = target: TRPM6 (human) (UniProt Q9BX84)
[38] = target: TYK2 JH1 catalytic (human) (UniProt P29597)
[39] = target: YSK4 (human) (UniProt Q56UN5)

Sequence of TRPM6 (human) (Q9BX84 whole entry, looked up): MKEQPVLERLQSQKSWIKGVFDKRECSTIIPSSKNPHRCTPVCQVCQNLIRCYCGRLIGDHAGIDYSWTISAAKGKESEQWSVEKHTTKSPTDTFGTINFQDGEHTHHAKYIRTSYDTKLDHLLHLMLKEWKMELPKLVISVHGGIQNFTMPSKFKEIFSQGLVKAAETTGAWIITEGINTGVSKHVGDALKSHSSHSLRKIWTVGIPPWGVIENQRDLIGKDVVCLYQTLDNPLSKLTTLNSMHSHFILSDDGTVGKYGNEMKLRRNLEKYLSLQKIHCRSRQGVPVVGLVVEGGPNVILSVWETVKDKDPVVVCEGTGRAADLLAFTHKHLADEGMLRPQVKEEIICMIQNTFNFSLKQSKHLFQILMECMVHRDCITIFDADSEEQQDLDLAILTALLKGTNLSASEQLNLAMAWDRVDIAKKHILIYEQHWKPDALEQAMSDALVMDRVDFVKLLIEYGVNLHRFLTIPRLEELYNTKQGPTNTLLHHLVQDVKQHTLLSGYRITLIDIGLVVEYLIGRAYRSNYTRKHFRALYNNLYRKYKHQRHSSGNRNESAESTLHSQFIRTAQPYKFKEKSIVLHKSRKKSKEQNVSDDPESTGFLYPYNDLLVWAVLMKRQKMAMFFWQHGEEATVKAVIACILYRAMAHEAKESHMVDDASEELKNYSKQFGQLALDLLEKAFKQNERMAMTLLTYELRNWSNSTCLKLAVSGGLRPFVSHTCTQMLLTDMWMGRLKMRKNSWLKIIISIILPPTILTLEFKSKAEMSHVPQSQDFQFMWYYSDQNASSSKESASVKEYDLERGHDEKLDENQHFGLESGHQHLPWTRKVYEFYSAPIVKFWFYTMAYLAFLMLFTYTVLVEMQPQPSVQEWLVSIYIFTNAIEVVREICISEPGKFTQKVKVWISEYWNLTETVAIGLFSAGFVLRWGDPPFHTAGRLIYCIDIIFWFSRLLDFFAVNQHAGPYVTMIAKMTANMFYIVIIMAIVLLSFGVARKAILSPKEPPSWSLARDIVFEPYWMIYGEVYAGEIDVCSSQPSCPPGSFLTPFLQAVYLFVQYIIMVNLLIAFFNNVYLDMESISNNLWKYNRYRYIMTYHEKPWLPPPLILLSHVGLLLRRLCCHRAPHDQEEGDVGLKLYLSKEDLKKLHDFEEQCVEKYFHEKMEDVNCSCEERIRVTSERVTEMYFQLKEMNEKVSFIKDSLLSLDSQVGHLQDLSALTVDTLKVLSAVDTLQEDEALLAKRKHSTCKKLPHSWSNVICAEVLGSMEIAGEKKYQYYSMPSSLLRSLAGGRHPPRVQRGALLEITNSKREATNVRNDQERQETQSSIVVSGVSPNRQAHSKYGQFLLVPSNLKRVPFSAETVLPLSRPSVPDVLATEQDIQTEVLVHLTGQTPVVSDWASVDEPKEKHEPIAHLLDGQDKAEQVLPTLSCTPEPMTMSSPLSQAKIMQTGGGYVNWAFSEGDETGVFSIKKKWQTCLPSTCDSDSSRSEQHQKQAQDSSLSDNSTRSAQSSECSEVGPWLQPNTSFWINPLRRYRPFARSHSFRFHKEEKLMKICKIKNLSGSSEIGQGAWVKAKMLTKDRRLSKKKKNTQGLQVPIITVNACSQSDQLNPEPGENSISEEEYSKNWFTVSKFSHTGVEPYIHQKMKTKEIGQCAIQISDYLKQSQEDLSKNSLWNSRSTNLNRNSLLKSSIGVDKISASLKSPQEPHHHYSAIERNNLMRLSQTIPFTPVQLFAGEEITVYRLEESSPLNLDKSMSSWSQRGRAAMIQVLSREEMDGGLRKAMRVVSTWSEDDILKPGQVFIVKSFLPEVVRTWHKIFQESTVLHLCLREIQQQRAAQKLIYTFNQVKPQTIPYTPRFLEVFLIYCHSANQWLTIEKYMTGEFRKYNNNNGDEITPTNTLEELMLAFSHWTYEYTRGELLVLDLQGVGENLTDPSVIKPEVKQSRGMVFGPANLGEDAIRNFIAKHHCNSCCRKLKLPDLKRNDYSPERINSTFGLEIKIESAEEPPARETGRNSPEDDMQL
Sequence of ITK (human) (Q08881 whole entry, looked up): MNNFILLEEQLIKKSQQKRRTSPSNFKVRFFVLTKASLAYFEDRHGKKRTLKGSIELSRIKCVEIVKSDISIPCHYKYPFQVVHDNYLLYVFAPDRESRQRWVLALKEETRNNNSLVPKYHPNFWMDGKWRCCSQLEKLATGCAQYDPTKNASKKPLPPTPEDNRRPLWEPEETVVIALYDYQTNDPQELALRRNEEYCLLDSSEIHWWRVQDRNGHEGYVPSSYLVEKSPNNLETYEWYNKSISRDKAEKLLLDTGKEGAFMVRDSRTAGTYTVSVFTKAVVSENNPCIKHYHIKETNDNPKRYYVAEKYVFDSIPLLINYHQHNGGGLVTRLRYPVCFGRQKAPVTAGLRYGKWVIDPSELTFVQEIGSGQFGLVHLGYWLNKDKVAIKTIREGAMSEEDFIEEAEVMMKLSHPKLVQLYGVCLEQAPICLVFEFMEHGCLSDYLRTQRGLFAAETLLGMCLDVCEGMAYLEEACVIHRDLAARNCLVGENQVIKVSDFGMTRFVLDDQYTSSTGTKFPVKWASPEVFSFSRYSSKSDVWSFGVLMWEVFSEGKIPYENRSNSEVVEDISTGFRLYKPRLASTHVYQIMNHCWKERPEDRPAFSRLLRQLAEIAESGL
Sequence of PRKD1 (human) (Q15139 whole entry, looked up): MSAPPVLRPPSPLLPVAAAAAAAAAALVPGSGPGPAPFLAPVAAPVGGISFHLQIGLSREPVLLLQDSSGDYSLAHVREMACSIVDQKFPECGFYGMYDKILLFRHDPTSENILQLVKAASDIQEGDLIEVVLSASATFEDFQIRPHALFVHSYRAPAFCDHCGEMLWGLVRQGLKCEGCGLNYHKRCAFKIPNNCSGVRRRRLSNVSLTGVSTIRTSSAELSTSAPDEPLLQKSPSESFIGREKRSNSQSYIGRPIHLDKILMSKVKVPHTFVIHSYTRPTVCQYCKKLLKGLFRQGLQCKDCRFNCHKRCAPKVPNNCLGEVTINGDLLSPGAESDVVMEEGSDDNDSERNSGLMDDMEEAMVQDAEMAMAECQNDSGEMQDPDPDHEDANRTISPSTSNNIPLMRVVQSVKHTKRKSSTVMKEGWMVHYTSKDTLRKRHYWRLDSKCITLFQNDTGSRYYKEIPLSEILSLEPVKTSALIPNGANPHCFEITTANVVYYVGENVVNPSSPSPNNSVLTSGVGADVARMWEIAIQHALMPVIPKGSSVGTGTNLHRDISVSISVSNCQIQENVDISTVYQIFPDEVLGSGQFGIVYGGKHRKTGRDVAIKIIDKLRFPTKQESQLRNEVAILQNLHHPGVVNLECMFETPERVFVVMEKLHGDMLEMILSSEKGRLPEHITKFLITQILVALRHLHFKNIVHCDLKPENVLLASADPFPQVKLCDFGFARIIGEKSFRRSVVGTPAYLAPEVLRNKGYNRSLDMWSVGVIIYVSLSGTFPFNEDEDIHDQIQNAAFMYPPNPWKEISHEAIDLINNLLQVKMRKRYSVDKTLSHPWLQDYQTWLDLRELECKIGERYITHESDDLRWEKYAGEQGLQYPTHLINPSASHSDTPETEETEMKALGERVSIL
Sequence of PDPK1 (human) (O15530 whole entry, looked up): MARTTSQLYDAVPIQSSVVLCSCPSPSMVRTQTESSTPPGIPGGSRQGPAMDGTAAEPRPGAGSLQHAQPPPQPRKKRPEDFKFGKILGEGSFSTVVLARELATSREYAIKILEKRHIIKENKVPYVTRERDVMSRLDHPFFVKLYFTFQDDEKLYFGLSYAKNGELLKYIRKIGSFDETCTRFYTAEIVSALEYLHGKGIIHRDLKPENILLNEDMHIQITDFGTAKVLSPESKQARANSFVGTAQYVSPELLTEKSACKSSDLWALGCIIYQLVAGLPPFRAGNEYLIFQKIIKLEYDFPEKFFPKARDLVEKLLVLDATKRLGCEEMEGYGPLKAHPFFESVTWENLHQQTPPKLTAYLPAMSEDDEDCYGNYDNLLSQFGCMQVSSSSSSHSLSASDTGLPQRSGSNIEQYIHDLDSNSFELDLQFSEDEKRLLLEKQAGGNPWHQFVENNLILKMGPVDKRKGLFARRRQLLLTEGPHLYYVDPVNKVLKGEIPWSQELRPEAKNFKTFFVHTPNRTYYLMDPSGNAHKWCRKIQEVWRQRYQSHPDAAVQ
Sequence of MAP2K6 (human) (P52564 whole entry, looked up): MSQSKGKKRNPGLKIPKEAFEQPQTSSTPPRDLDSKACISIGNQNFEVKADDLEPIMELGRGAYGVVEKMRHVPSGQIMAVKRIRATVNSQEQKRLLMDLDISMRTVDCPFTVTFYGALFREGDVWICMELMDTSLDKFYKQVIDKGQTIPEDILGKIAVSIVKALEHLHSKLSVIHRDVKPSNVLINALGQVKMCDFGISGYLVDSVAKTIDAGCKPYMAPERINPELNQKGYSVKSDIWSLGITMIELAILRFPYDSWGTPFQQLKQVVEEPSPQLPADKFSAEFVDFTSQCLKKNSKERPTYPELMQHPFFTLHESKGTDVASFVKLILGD
Sequence of CLK2 (human) (P49760 whole entry, looked up): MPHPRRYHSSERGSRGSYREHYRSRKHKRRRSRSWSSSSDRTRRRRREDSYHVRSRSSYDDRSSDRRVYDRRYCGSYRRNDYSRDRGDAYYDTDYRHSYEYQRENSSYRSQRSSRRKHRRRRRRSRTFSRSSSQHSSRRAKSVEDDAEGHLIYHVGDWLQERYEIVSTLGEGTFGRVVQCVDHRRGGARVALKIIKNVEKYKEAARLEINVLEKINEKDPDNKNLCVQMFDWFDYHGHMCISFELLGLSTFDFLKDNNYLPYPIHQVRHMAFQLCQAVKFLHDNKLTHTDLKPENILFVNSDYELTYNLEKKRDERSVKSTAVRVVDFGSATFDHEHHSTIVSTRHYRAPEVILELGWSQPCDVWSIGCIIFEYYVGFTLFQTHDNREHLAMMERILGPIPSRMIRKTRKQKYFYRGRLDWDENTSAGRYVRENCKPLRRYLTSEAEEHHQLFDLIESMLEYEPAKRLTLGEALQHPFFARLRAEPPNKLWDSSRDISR

Structure (SMILES): CNc1nc(Nc2ccc(C(=O)N3CCOCC3)cc2OC)ncc1Cl
- kinase still bound, per cent of control [1]: 100%
- kinase still bound, per cent of control [2]: 81%
- kinase still bound, per cent of control [3]: 79%
- kinase still bound, per cent of control [4]: 100%
- residual activity [5]: 100%
- residual activity [6]: 36%
- kinase still bound, per cent of control [7]: 84%
- kinase still bound, per cent of control [8]: 100%
- kinase still bound, per cent of control [9]: 100%
- kinase still bound, per cent of control [10]: 100%
- kinase still bound, per cent of control [11]: 100%
- kinase still bound, per cent of control [12]: 100%
- kinase still bound, per cent of control [13]: 100%
- kinase still bound, per cent of control [14]: 73%
- kinase still bound, per cent of control [15]: 79%
- kinase still bound, per cent of control [16]: 90%
- kinase still bound, per cent of control [17]: 100%
- kinase still bound, per cent of control [18]: 87%
- kinase still bound, per cent of control [19]: 9.4%
- kinase still bound, per cent of control [20]: 100%
- kinase still bound, per cent of control [21]: 50%
- kinase still bound, per cent of control [22]: 100%
- kinase still bound, per cent of control [23]: 100%
- kinase still bound, per cent of control [24]: 100%
- kinase still bound, per cent of control [25]: 100%
- kinase still bound, per cent of control [26]: 100%
- kinase still bound, per cent of control [27]: 99%
- kinase still bound, per cent of control [28]: 100%
- kinase still bound, per cent of control [29]: 95%
- kinase still bound, per cent of control [30]: 96%
- kinase still bound, per cent of control [31]: 83%
- kinase still bound, per cent of control [32]: 84%
- kinase still bound, per cent of control [33]: 87%
- kinase still bound, per cent of control [34]: 100%
- kinase still bound, per cent of control [35]: 100%
- kinase still bound, per cent of control [36]: 78%
- kinase still bound, per cent of control [37]: 87%
- kinase still bound, per cent of control [38]: 73%
- kinase still bound, per cent of control [39]: 44%

— the kinase profiling compilation of Christmann-Franck et al. (2016)
